Here are results for five molecules from publication PMC4788153, “Impact of Cytochrome P450 2D6 Function on the Chiral Blood Plasma Pharmacokinetics of 3,4-Methylenedioxymethamphetamine (MDMA) and Its Phase I and II Metabolites in Humans” (PLoS ONE, 2016).

One may read the Tmax as the time at which the peak concentration occurs. What is called EC50 is the concentration giving half of the maximal effect.

A short description of data set [1]: Chiral plasma pharmacokinetics of bupropion and hydroxybupropion. The settings on record: bupropion+MDMA vs bupropion+placebo.
Data set [2] in a line: Chiral plasma pharmacokinetics of MDMA and its phase I and II metabolites after controlled MDMA administration. The format is in vivo, human. On the procedure: Blood plasma samples were analyzed non-stereoselectively as reported previously and reanalyzed for the present report using liquid chromatography-mass spectrometry/mass spectrometry after chiral derivatization with Marfey’s reagent as described previously. The method was fully validated, including selectivity, recovery, matrix effects, bias and imprecision, stability, and limit of quantification.

For data set [3] the following is noted: 125 mg single dose; ref [3, 61]; cited from earlier work.
A further data set concerns serotonin transporter. The conditions noted are these: four weeks after MDMA 1.5-1.7 mg/kg, MDMA-naïve volunteers; ref [123, 124]; cited from earlier work.
The test system of data set [4] is DAT. On the set-up: method as in ref [15] (a number printed in a supplementary file, which may have a reference list of its own: not looked up in the article's list). The conditions noted are these: rat synaptosomes, without bupropion; ref [15]; read-out: EC50 of DAT-mediated amphetamine-induced DA release; cited from earlier work.
In data set [5] the test system is DAT. The settings on record: cited from earlier work.
On the set-up of data set [6]: method as in ref [46] (a number printed in a supplementary file, which may have a reference list of its own: not looked up in the article's list). The settings on record: ref [46]; cited from earlier work.
Where [7] appears, read: bupropion vs placebo pretreatment.

Read-outs that look alike come from different tables or passages of the source.

For `C[C@@H]1NC(C)(C)CO[C@@]1(O)c1cccc(Cl)c1` [S,S-hydroxybupropion, hydroxybupropion], the “effect of MDMA co-administration on plasma concentrations” value in data set [1] is “did not significantly alter”.

Turning to `C[C@H]1NC(C)(C)CO[C@]1(O)c1cccc(Cl)c1` [R,R-hydroxybupropion, hydroxybupropion], the “effect of MDMA co-administration on plasma concentrations” value in data set [1] is “did not significantly alter”.

On to `CNC(C)Cc1ccc2c(c1)OCO2` (stereo not drawn) [MDMA, 3,4-methylenedioxymethamphetamine], for which, in data set [2] (CYP2D6 inhibition by bupropion), the “mean overall effect on R/S ratios” value was “less than 10%”. In addition, in data set [2] (setting [7]), the “change of R/S ratio for AUC24 after bupropion pretreatment” value was -9% and the “change of R/S ratio for Cmax after bupropion pretreatment” value was -6%. In data set [3], the T1/2 is 9.6 h and the Tmax was 2.5 h. Also, the “change in serotonin transporter density” value in the data set on serotonin transporter is reported as “No changes”.

In the case of `CC(N)Cc1ccccc1` (stereo not drawn) [amphetamine], the EC50 in the data set on DAT [4] was […].

Take `CC(NC(C)(C)C)C(=O)c1cccc(Cl)c1` (stereo not drawn) [bupropion]: the “DAT occupancy in the human striatum” value in the data set with DAT [5] (150 mg twice-daily, 3 h after last dose, 11C-βCIT-FE PET, ref [16]) was 26%. In the data set on DAT [5] (2.5 h after single 150 mg, 11C-raclopride PET, ref [83]), the “striatal DAT occupancy” value is reported as “no significant”. For the same molecule, in data set [6], the T1/2 is given as 20 h.
